According to patent US9555038B2, “Heterocycle-substituted tetracyclic compounds and methods of use thereof for the treatment of viral diseases” (Merck Sharp & Dohme Corp., priority 2013, dated 2017):
Read-outs that look alike come from different tables or passages of the source.

Columns and labels:
HCV replicon 1A = assay: Cell-based HCV Replicon Assay A, replicon 1A
In short: (§1)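 2000 cells/well; 10 serial dilutions, top concentration 333.3 nM to 1.667 nM; 0.5% DMSO, 5% FBS; 3 days; lysis; multiplex TaqMan RT-PCR (NS5B/Neo plus cyclophilin), RNA from linear Ct standard curves.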

HCV replicon 1B = assay: Cell-based HCV Replicon Assay B, replicon 1B
Experimental: In an alternate assay (“Replicon Assay B”), 1000 cells were seeded per well in a 384-well collagen coated black plate from Greiner bio-one (Cat #781946) in 5% FBS. Inhibitors of this invention were added at 24 h post-seeding, and the plates were incubated for 3 days. Cells were subsequently lysed with Qiagen lysis buffer (Cat #1062731) to extract the RNA. HCV replicon RNA level was measured by real-time PCR using the RNA-to-CT kit from Applied Biosystem (Cat #4392656) and genotype-specific primers and probes. The amplicon was located within NS5B. The sequence of the PCR primers are as follows: 5B.2F, ATGGACAGGCGCCCTGA (SEQ. ID NO. 1); 5B.2R, […] (SEQ. ID NO. 2); the probe sequence was FAM-labeled CACGCCATGCGCTGCGG (SEQ. ID NO. 3). To detect genotype 1A the primer 1A F, TGCGGAACCGGTGAGTACA and 1A R, […] were used; the probe sequence was FAM-[…].
The real-time RT-PCR reactions were run on ABI PRISM 7900HT or Viia7 Sequence Detection System using the following program: 48° C. for 30 minutes, 95° C. for 10 minutes, 40 cycles of 95° C. for 15 sec, 60° C. for 1 minutes. The 50% effective concentration (EC50) was the drug concentration necessary to achieve an increase in the cycle threshold (CT) of 1 over the projected baseline CT.
Data was obtained for various compounds of the present invention using the methods described in the Example above, and is presented in the table immediately below. Data for replicons 1A, 1AY93H and 2B were obtained using Replicon Assay A and data for replicons 1AQ30D and 1B were obtained using Replicon Assay B.

HCV replicon 1AY93H = assay: Cell-based HCV Replicon Assay A, replicon 1AY93H
In short: as §1

HCV replicon 2B = assay: Cell-based HCV Replicon Assay A, replicon 2B
In short: as §1

[1] = read-out: 1A Y93H IC50, replicon 1AY93H
[2] = Hepatitis C virus, read-out: 1A Y93H IC50 (nM), replicon 1AY93H
[3] = Hepatitis C virus, read-out: 2B IC50 (nM), replicon 2B
[4] = replicon 1AY93H, read-out: 1A Y93H IC50

COC(=O)NC(C(=O)N1CCC[C@H]1c1ncc(-c2ccc3c(c2)cc2n3C(c3cnc(C4(C)CC4)s3)Oc3cc(-c4cnc([C@@H]5CCCN5C(=O)[C@@H](NC(=O)OC)C(C)C)[nH]4)cc(F)c3-2)[nH]1)C1CCOC(C)(C)C1 (single isomer, unassigned) [Compound 460]
IC50 (HCV replicon 1A): 2.7 pM | IC50 (HCV replicon 1B): 3.9 pM | IC50 (HCV replicon 1AY93H; [1]): 0.288 nM | IC50 (HCV replicon 2B; read-out: 2B IC50, replicon 2B): 0.138 nM

COC(=O)N[C@H](C(=O)N1CCC[C@H]1c1ncc(-c2cc(F)c3c(c2)OC(c2cnc(C4CC4)s2)n2c-3cc3cc(-c4cnc([C@@H]5CC6(C)CC6N5C(=O)[C@@H](NC(=O)OC)C(C)C)[nH]4)ccc32)[nH]1)C(C)C (stereo partly drawn) [Compound 517]
IC50 (HCV replicon 1A; Hepatitis C virus): 1.7 pM | IC50 (HCV replicon 1B; Hepatitis C virus): 3.3 pM | IC50 (HCV replicon 1AY93H; [2]): 0.392 nM | IC50 (HCV replicon 2B; [3]): 0.874 nM

COC(=O)N[C@H](C(=O)N1CCC[C@H]1c1ncc(-c2cc(F)c3c(c2)OC(c2sc(C(C)C)nc2C)n2c-3cc3cc(-c4cnc([C@@H]5CCCN5C(=O)[C@@H](NC(=O)OC)C(C)C)[nH]4)ccc32)[nH]1)C(C)C (single isomer, unassigned) [Compound 515]
IC50 (HCV replicon 1A; Hepatitis C virus): 1.3 pM | IC50 (HCV replicon 1B; Hepatitis C virus): 2.9 pM | IC50 (HCV replicon 1AY93H; [2]): 4.45 nM | IC50 (HCV replicon 2B; [3]): 1.84 nM

COC(=O)NC(C(=O)N1CCC[C@H]1c1ncc(-c2ccc3c(c2)cc2n3C(c3sc(C(C)C)nc3C)Oc3cc(-c4cnc([C@@H]5CCCN5C(=O)[C@@H](NC(=O)OC)C(C)C)[nH]4)cc(F)c3-2)[nH]1)C1CCOC(C)(C)C1 (single isomer, unassigned) [Compound 434]
IC50 (HCV replicon 1A; Hepatitis C virus): 2.3 pM | IC50 (HCV replicon 1B; Hepatitis C virus): 3.5 pM | IC50 (HCV replicon 1AY93H; [2]): 0.729 nM | IC50 (HCV replicon 2B; [3]): 0.293 nM

COC(=O)N[C@H](C(=O)N1CCC[C@H]1c1ncc(-c2cc(F)c3c(c2)OC(c2cnc(C4(C)CC4)s2)n2c-3cc3cc(-c4cnc([C@@H]5CCCN5C(=O)[C@@H](NC(=O)OC)C(C)C)[nH]4)ccc32)[nH]1)C(C)C (single isomer, unassigned) [Compound 512]
IC50 (HCV replicon 1A): 8.5 pM | IC50 (HCV replicon 1B): 3.9 pM | IC50 (HCV replicon 1AY93H; [1]): 0.347 nM | IC50 (HCV replicon 2B; read-out: 2B IC50, replicon 2B): 0.783 nM

COC(=O)N[C@H](C(=O)N1CCC[C@H]1c1ncc(-c2cc(F)c3c(c2)OC(c2cnc(CC4CC4)s2)n2c-3cc3cc(-c4cnc([C@@H]5CCCN5C(=O)[C@@H](NC(=O)OC)C(C)C)[nH]4)ccc32)[nH]1)C(C)C (single isomer, unassigned) [Compound 509]
IC50 (HCV replicon 1A): 2 pM | IC50 (HCV replicon 1B): 2.8 pM | IC50 (HCV replicon 1AY93H; [4]): 0.014 nM | IC50 (HCV replicon 2B; replicon 2B, read-out: 2B IC50): 0.018 nM

COC(=O)NC(C(=O)N1CCC[C@H]1c1ncc(-c2ccc3c(c2)cc2n3C(c3cnc(C(C)(C)C)s3)Oc3cc(-c4cnc([C@@H]5CCCN5C(=O)[C@@H](NC(=O)OC)C(C)C)[nH]4)cc(F)c3-2)[nH]1)C1CCOC(C)(C)C1 (single isomer, unassigned) [Compound 315]
IC50 (HCV replicon 1A): 2.7 pM | IC50 (HCV replicon 1B; Hepatitis C virus): 2 pM | IC50 (HCV replicon 1AY93H; [1]): 0.0028 nM | IC50 (HCV replicon 2B; read-out: 2B IC50, replicon 2B): 0.004 nM

CCCc1ncc(C2Oc3cc(-c4cnc([C@@H]5CCCN5C(=O)[C@@H](NC(=O)OC)C(C)C)[nH]4)cc(F)c3-c3cc4cc(-c5cnc([C@@H]6CCCN6C(=O)C(NC(=O)OC)C6CCOC(C)(C)C6)[nH]5)ccc4n32)s1 (single isomer, unassigned) [Compound 60]
IC50 (HCV replicon 1A): 4 pM | IC50 (HCV replicon 1B): 4 pM | IC50 (HCV replicon 1AY93H; [1]): 0.4 nM | IC50 (HCV replicon 2B; read-out: 2B IC50, replicon 2B): 0.184 nM

COC(=O)NC(C(=O)N1CCC[C@H]1c1ncc(-c2ccc3c(c2)cc2n3C(c3cnc(C4(C)CC4)s3)Oc3cc(-c4cnc([C@@H]5CCCN5C(=O)[C@@H](NC(=O)OC)C(C)C)[nH]4)cc(F)c3-2)[nH]1)C1CCOC(C)(C)C1 (single isomer, unassigned) [Compound 459]
IC50 (HCV replicon 1A): 2.3 pM | IC50 (HCV replicon 1B): 3 pM | IC50 (HCV replicon 1AY93H; [1]): 0.296 nM | IC50 (HCV replicon 2B; read-out: 2B IC50, replicon 2B): 0.083 nM

COC(=O)N[C@H](C(=O)N1CCC[C@H]1c1ncc(-c2cc(F)c3c(c2)OC(c2cnc(-c4ccc(F)cc4F)s2)n2c-3cc3cc(-c4cnc([C@@H]5CCCN5C(=O)[C@@H](NC(=O)OC)C(C)C)[nH]4)ccc32)[nH]1)C(C)C (single isomer, unassigned) [Compound 98]
IC50 (HCV replicon 1A; Hepatitis C virus): 2.7 pM | IC50 (HCV replicon 1B; Hepatitis C virus): 1.2 pM | IC50 (HCV replicon 1AY93H; [1]): 0.01 nM | IC50 (HCV replicon 2B; read-out: 2B IC50, replicon 2B): 0.003 nM

COC(=O)N[C@H](C(=O)N1CCC[C@H]1c1ncc(-c2cc(C)c3c(c2)OC(c2cnc(C4CCC4)s2)n2c-3cc3cc(-c4cnc([C@@H]5C[C@H]6C[C@H]6N5C(=O)[C@@H](NC(=O)OC)C(C)C)[nH]4)ccc32)[nH]1)C(C)C (single isomer, unassigned) [Compound 207]
IC50 (HCV replicon 1A; Hepatitis C virus): 3 pM | IC50 (HCV replicon 1B; Hepatitis C virus): 5 pM | IC50 (HCV replicon 1AY93H; [2]): 0.26 nM | IC50 (HCV replicon 2B; [3]): 0.25 nM

COC(=O)NC(C(=O)N1[C@@H]2C[C@@H]2C[C@H]1c1ncc(-c2ccc3c(c2)cc2n3C(c3cnc(C4CC4)s3)Oc3cc(-c4cnc([C@@H]5CCCN5C(=O)[C@@H](NC(=O)OC)C(C)C)[nH]4)cc(C)c3-2)[nH]1)C1C[C@@H](C)O[C@@H](C)C1 (single isomer, unassigned) [Compound 216]
IC50 (HCV replicon 1A; Hepatitis C virus): 2.4 pM | IC50 (HCV replicon 1B; Hepatitis C virus): 4 pM | IC50 (HCV replicon 1AY93H; [1]): 0.292 nM | IC50 (HCV replicon 2B; read-out: 2B IC50, replicon 2B): 0.086 nM

COC(=O)NC(C(=O)N1[C@@H]2C[C@@H]2C[C@H]1c1ncc(-c2ccc3c(c2)cc2n3C(c3cnc(C4(C)CCCC4)s3)Oc3cc(-c4cnc([C@@H]5CCCN5C(=O)[C@@H](NC(=O)OC)C(C)C)[nH]4)cc(F)c3-2)[nH]1)C1CCOC(C)(C)C1 (single isomer, unassigned) [Compound 476]
IC50 (HCV replicon 1A): 1.1 pM | IC50 (HCV replicon 1B): 3.5 pM | IC50 (HCV replicon 1AY93H; [1]): 0.316 nM | IC50 (HCV replicon 2B; read-out: 2B IC50, replicon 2B): 0.19 nM

COC(=O)NC(C(=O)N1[C@@H]2C[C@@H]2C[C@H]1c1ncc(-c2ccc3c(c2)cc2n3C(c3cnc(C4(C)CCCC4)s3)Oc3cc(-c4cnc([C@@H]5CCCN5C(=O)[C@@H](NC(=O)OC)C(C)C)[nH]4)cc(F)c3-2)[nH]1)C1C[C@@H](C)O[C@@H](C)C1 (single isomer, unassigned) [Compound 474]
IC50 (HCV replicon 1A): 1.5 pM | IC50 (HCV replicon 1B): 3.6 pM | IC50 (HCV replicon 1AY93H; [1]): 0.269 nM | IC50 (HCV replicon 2B; read-out: 2B IC50, replicon 2B): 0.263 nM

COCc1ncc(C2Oc3cc(-c4cnc([C@@H]5CCCN5C(=O)[C@@H](NC(=O)OC)C(C)C)[nH]4)cc(F)c3-c3cc4cc(-c5cnc([C@@H]6CCCN6C(=O)[C@@H](NC(=O)OC)C(C)C)[nH]5)ccc4n32)s1 (single isomer, unassigned) [Compound 17]
IC50 (HCV replicon 1A; Hepatitis C virus): 1.2 pM | IC50 (HCV replicon 1B; Hepatitis C virus): 2 pM | IC50 (HCV replicon 1AY93H; [1]): 1.01 nM | IC50 (HCV replicon 2B; read-out: 2B IC50, replicon 2B): 0.528 nM

COC(=O)NC(C(=O)N1CCC[C@H]1c1ncc(-c2ccc3c(c2)cc2n3C(c3cnc(C4(C)CCCC4)s3)Oc3cc(-c4cnc([C@@H]5CCCN5C(=O)[C@@H](NC(=O)OC)C(C)C)[nH]4)cc(F)c3-2)[nH]1)C1C[C@@H](C)O[C@@H](C)C1 (single isomer, unassigned) [Compound 470]
IC50 (HCV replicon 1A): 2.6 pM | IC50 (HCV replicon 1B): 3.5 pM | IC50 (HCV replicon 1AY93H; [1]): 0.514 nM | IC50 (HCV replicon 2B; read-out: 2B IC50, replicon 2B): 0.106 nM

COC(=O)N[C@H](C(=O)N1CCC[C@H]1c1ncc(-c2cc(F)c3c(c2)OC(c2csc(C4CC4)n2)n2c-3cc3cc(-c4cnc([C@@H]5CCCN5C(=O)[C@@H](NC(=O)OC)C(C)C)[nH]4)ccc32)[nH]1)C(C)C (single isomer, unassigned) [Compound 432]
IC50 (HCV replicon 1A; Hepatitis C virus): 1 pM | IC50 (HCV replicon 1B; Hepatitis C virus): 1 pM | IC50 (HCV replicon 1AY93H; [1]): 2.6 nM | IC50 (HCV replicon 2B; read-out: 2B IC50, replicon 2B): 4 nM

CCCc1ncc(C2Oc3cc(-c4cnc([C@@H]5CCCN5C(=O)[C@@H](NC(=O)OC)C(C)C)[nH]4)cc(F)c3-c3cc4cc(-c5cnc([C@@H]6CCCN6C(=O)[C@@H](NC(=O)OC)C(C)C)[nH]5)ccc4n32)s1 (stereo partly drawn) [Compound 16]
IC50 (HCV replicon 1A): 1.7 pM | IC50 (HCV replicon 1B): 1 pM | IC50 (HCV replicon 1AY93H; [1]): 0.083 nM | IC50 (HCV replicon 2B; read-out: 2B IC50, replicon 2B): 0.284 nM

COC(=O)N[C@H](C(=O)N1CCC[C@H]1c1ncc(-c2cc(F)c3c(c2)OC(c2cnc(C4CC4)s2)n2c-3cc3cc(-c4cnc([C@@H]5CC6(C)CC6N5C(=O)[C@@H](NC(=O)OC)C(C)C)[nH]4)ccc32)[nH]1)C(C)C (single isomer, unassigned) [Compound 520]
IC50 (HCV replicon 1A): 3.3 pM | IC50 (HCV replicon 1B): 3.7 pM | IC50 (HCV replicon 1AY93H; [4]): 2.71 nM
